Reference: patent US20240173419A1, “CDK2 DEGRADERS AND USES THEREOF” (Kymera Therapeutics, Inc., priority 2022, published 2024)

Target: T1, CDK2 (Homo sapiens, UniProt P24941)
T1 construct: endogenous in cells; host or cells: MKN1 cells
Experiment: CDK2 degradation in MKN1 cells (AlphaLISA)
Assay type: cell-based
Conditions: for CDK2 degradation 14 h: Average Dmax % / DC50: 14 h incubation; for DC50: read-out: CDK2 degradation 14 h: Mean external-Abs DC50; for Dmax: MKN-1, 14 h incubation
Procedure, shortened: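 MKN1 cells (2e4/well) treated 14 h at 37° C with 11-point 1:5 dilutions (0.001 nM-10 μM, 0.1% DMSO). CDK2 in lysates quantified by AlphaLISA, no-cell background subtracted; DC50 from four-parameter logistic fit.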

Row | SMILES | CDK2 degradation 14 h: Average Dmax % | DC50 | Dmax
1 | Cc1cc(S(=O)(=O)NC2CC(N3CCN(CC4CCN(c5ccc(C6CCC(=O)NC6=O)c(Cl)c5)CC4)CC3)C2)ccc1Nc1ncc(C(F)(F)F)c(N2CCCC(C)(O)C2)n1 (stereo not shown) [I-713] | A (A (>75% o)) | < 100 nM | 
2 | Cc1cc(S(=O)(=O)NC2CC(N3CCN(CC4CCN(c5ccc(C6CCC(=O)NC6=O)c(Cl)c5)CC4)CC3)C2)ccc1Nc1ncc(C(F)(F)F)c(N2CCCC(C)(O)C2)n1 (stereo not shown) [I-714] | A (A (>75% o)) | < 100 nM | 
3 | Cc1cc(S(=O)(=O)NC2CC(N3CCN(CC4CCN(c5ccc(Cl)c(C6CCC(=O)NC6=O)c5)CC4)CC3)C2)ccc1Nc1ncc(C(F)(F)F)c(N2CCCC(C)(O)C2)n1 (stereo not shown) [I-715] | A (A (>75% o)) | < 100 nM | 
4 | Cc1cc(S(=O)(=O)NC2CC(N3CCN(CC4CCN(c5ccc(Cl)c(NC6CCC(=O)NC6=O)c5)CC4)CC3)C2)ccc1Nc1ncc(C(F)(F)F)c(N2CCCC(C)(O)C2)n1 (stereo not shown) [I-716] | B (B (>50% -75%)) | > 1000 nM | 
5 | Cc1cc(S(=O)(=O)NC2CC(N3CCN(CC4CCN(c5ccc(NC6CCC(=O)NC6=O)c(Cl)c5)CC4)CC3)C2)ccc1Nc1ncc(C(F)(F)F)c(N2CCCC(C)(O)C2)n1 (stereo not shown) [I-717] | A (A (>75% o)) | < 100 nM | 
6 | Cc1cc(S(=O)(=O)NC2CC(N3CCN(CC4CCN(c5cccc(C6CCC(=O)NC6=O)c5)CC4)CC3)C2)ccc1Nc1ncc(C(F)(F)F)c(N2CCCC(C)(O)C2)n1 (stereo not shown) [I-718] | A (A (>75% o)) | 100 to 500 nM | 
7 | Cc1cc(S(=O)(=O)NC2CC(N3CCN(CC4CCN(c5ccc(C6CCC(=O)NC6=O)cc5)CC4)CC3)C2)ccc1Nc1ncc(C(F)(F)F)c(N2CCCC(C)(O)C2)n1 (stereo not shown) [I-719] | A (A (>75% o)) | < 100 nM | 
8 | Cc1cc(S(=O)(=O)NC2CC(N3CCN(CC4CCN(c5cc(NC6CCC(=O)NC6=O)ccc5Cl)CC4)CC3)C2)ccc1Nc1ncc(C(F)(F)F)c(N2CCCC(C)(O)C2)n1 (stereo not shown) [I-720] | A (A (>75% o)) | < 100 nM | 
9 | Cc1cc(S(=O)(=O)NC2CC(N3CCN(CC4CCN(c5ccc(N6CCC(=O)NC6=O)c(Cl)c5)CC4)CC3)C2)ccc1Nc1ncc(C(F)(F)F)c(N2CCCC(C)(O)C2)n1 (stereo not shown) [I-721] | A (A (>75% o)) | < 100 nM | 
10 | Cc1cc(S(=O)(=O)NC2CC(N3CCN(CC4CCN(c5ccc(Cl)c(N6CCC(=O)NC6=O)c5)CC4)CC3)C2)ccc1Nc1ncc(C(F)(F)F)c(N2CCCC(C)(O)C2)n1 (stereo not shown) [I-722] | A (A (>75% o)) | < 100 nM | 
11 | Cc1cc(S(=O)(=O)NC2CCC(CN3CCN(c4ccc(C5CCC(=O)NC5=O)c(Cl)c4)CC3)CC2)ccc1Nc1ncc(C(F)(F)F)c(N2CCC[C@](C)(O)C2)n1 (stereo partly drawn) [I-745, N-[4-[[4-[3-chloro-4-(2,6-dioxo-3-piperidyl)phenyl]piperazin-1-yl]methyl]cyclohexyl]-4-[[4-[(3S)-3-hydroxy-3-methyl-1-piperidyl]-5-(trifluoromethyl)pyrimidin-2-yl]amino]-3-methyl-benzenesulfonamide] |  | < 100 nM | > 75%
12 | Cc1cc(S(=O)(=O)N[C@H](C)CO[C@H]2CC[C@H](CN3CCN(c4cccc5c4n(C)c(=O)n5C4CCC(=O)NC4=O)CC3)CC2)ccc1Nc1ncc(C(F)(F)F)c(N2CCC[C@](C)(O)C2)n1 (stereo partly drawn) [I-766, N-[(1R)-2-[4-[[4-[1-(2,6-dioxo-3-piperidyl)-3-methyl-2-oxo-benzimidazol-4-yl]piperazin-1-yl]methyl]cyclohexoxy]-1-methyl-ethyl]-4-[[4-[(3S)-3-hydroxy-3-methyl-1-piperidyl]-5-(trifluoromethyl)pyrimidin-2-yl]amino]-3-methyl-benzenesulfonamide] |  | < 100 nM | > 75%
13 | Cc1cc(S(=O)(=O)NC2CCC(CN3CCN(c4cccc(NC5CCC(=O)NC5=O)c4)CC3)CC2)ccc1Nc1ncc(C(F)(F)F)c(N2CCCC(C)(O)C2)n1 (stereo not shown) [I-775] | A (A (>75% o)) | < 100 nM | 
14 | Cc1cc(S(=O)(=O)NC2CC(N3CCN(CC4CCN(c5cccc6c5n(C)c(=O)n6C5CCC(=O)NC5=O)CC4)CC3)C2)ccc1Nc1ncc(C(F)(F)F)c(N2CCCCC2)n1 (stereo not shown) [I-795] | A (A (>75% o)) | < 100 nM | 
15 | Cc1cc(S(=O)(=O)N[C@H]2C[C@H](N3CCN(CC4CCN(c5cccc6c5n(C)c(=O)n6C5CCC(=O)NC5=O)CC4)CC3)C2)ccc1Nc1ncc(C(F)(F)F)c(N2CCC[C@H](C(F)F)C2)n1 (stereo partly shown) [I-796] | A (A (>75% o)) | < 100 nM | 
16 | Cc1cc(S(=O)(=O)N[C@H]2C[C@H](N3CCN(CC4CCN(c5cccc6c5n(C)c(=O)n6C5CCC(=O)NC5=O)CC4)CC3)C2)ccc1Nc1ncc(C(F)(F)F)c(N2CCC[C@@H](C(F)F)C2)n1 (stereo partly shown) [I-797] | A (A (>75% o)) | < 100 nM | 
17 | Cc1cc(S(=O)(=O)NC2CCC(CN3CCN(c4ccc(C5CCC(=O)NC5=O)cc4)CC3)CC2)ccc1Nc1ncc(C(F)(F)F)c(N2CCCC(C)(O)C2)n1 (stereo not shown) [I-799] | A (A (>75% o)) | < 100 nM | 
18 | Cc1cc(S(=O)(=O)NC2CCC(CN3CCN(c4cc(Cl)c(C5CCC(=O)NC5=O)cc4F)CC3)CC2)ccc1Nc1ncc(C(F)(F)F)c(N2CCCC(C)(O)C2)n1 (stereo not shown) [I-800] | A (A (>75% o)) | < 100 nM | 
19 | Cc1cc(S(=O)(=O)NC2(C)CCN(CC3CCN(c4ccc(C5CCC(=O)NC5=O)c(Cl)c4)CC3)CC2)ccc1Nc1ncc(C(F)(F)F)c(N2CCC[C@](C)(O)C2)n1 (stereo partly shown) [I-801] | A (A (>75% o)) | < 100 nM | 
20 | Cc1cc(S(=O)(=O)NC23CCC(CN4CCN(c5ccc(C6CCC(=O)NC6=O)cc5)CC4)(CC2)CC3)ccc1Nc1ncc(C(F)(F)F)c(N2CCC[C@](C)(O)C2)n1 (stereo partly shown) [I-802] | A (A (>75% o)) | < 100 nM | 
21 | Cc1cc(S(=O)(=O)NC2(C)CCC(CN3CCN(c4ccc(C5CCC(=O)NC5=O)cc4F)CC3)CC2)ccc1Nc1ncc(C(F)(F)F)c(N2CCC[C@](C)(O)C2)n1 (stereo partly shown) [I-803] | A (A (>75% o)) | < 100 nM | 
22 | Cc1cc(S(=O)(=O)N[C@@H]2CCN(CC3CCN(c4ccc(C5CCC(=O)NC5=O)cc4F)CC3)C[C@H]2F)ccc1Nc1ncc(C(F)(F)F)c(N2CCC[C@](C)(O)C2)n1 (stereo partly shown) [I-804] | A (A (>75% o)) | < 100 nM | 
23 | Cc1cc(S(=O)(=O)NC2CCC(CN3CCN(c4cc(F)c(C5CCC(=O)NC5=O)cc4C)CC3)CC2)ccc1Nc1ncc(C(F)(F)F)c(N2CCCC(C)(O)C2)n1 (stereo not shown) [I-806] | A (A (>75% o)) | < 100 nM | 
24 | Cc1cc(S(=O)(=O)NC2CCC(CN3CCN(c4ccc(C5CCC(=O)NC5=O)cc4Cl)CC3)CC2)ccc1Nc1ncc(C(F)(F)F)c(N2CCCC(C)(O)C2)n1 (stereo not shown) [I-807] | A (A (>75% o)) | < 100 nM | 
25 | Cc1cc(S(=O)(=O)NC2(C)CCN(CC3(F)CCN(c4ccc(C5CCC(=O)NC5=O)cc4)CC3)CC2)ccc1Nc1ncc(C(F)(F)F)c(N2CCC[C@](C)(O)C2)n1 (stereo partly shown) [I-808] | A (A (>75% o)) | < 100 nM | 
26 | Cc1cc(S(=O)(=O)N[C@H]2CC[C@H](CN3CCN(c4ccc(C5CCC(=O)NC5=O)cc4F)C[C@@H]3C)CC2)ccc1Nc1ncc(C(F)(F)F)c(N2CCC[C@](C)(O)C2)n1 (stereo partly shown) [I-810] | A (A (>75% o)) | < 100 nM | 
